Source: US20100261768A1, “Bioavailable Compositions of Amorphous Alpha-(N-Sulfonamido)Acetamide Compound” (Bristol-Myers Squibb Company, priority 2009, published 2010)

Key:
[1] = aqueous solubility; assay type: physicochemical; settings: aqueous medium; at about room temperature
Method: (§1) Unfortunately, (2R)-2-[[(4-chlorophenyl)sulfonyl][[2-fluoro-4-(1,2,4-oxadiazol-3-yl)phenyl]methyl]amino]-5,5,5-trifluoropentanamide has poor aqueous solubility that is often characterized as <1 ug/mL at about room temperature. […] Thus, it now appears that in order to provide optimal exposure of the API, an amorphous (non-crystalline) form of the active compound should be provided.

[2] = solubility of the compound in PVP-VA; assay type: physicochemical; settings: at a temperature of about 100° C.
Method: In order to prepare the compositions hereinabove described, various preparation means available to the skilled artisan may be utilized. It is preferred that the compositions containing the active compound and PVP-VA be prepared by the methods of hot-melt extrusion or spray-drying, with hot-melt extrusion being more preferred. A processing temperature of about 150-160° C. is preferred for hot-melt extrusion processing of the active compound using apparatus available in the art.

[3] = bioavailability after particle size reduction; assay type: in vivo
Method: as §1

solubility [1]: < 1 µg/mL
soluble in PVP-VA [2]: less than 5%
improvement in bioavailability by particle size reduction [3]: no appreciable improvement
Structure (SMILES): NC(=O)[C@@H](CCC(F)(F)F)N(Cc1ccc(-c2ncon2)cc1F)S(=O)(=O)c1ccc(Cl)cc1 [(2R)-2-[[(4-chlorophenyl)sulfonyl][[2-fluoro-4-(1,2,4-oxadiazol-3-yl)phenyl]methyl]amino]-5,5,5-trifluoropentanamide]
